Tests used:
Type in all cases: functional
[1] = test system: Acanthocheilonema viteae; test: Compound was tested in vivo for anti-filarial activity against A. viteae through oral route of administration at 200 mg/kg for 5 days and microfilaricidal response was observed
[2] = test system: Acanthocheilonema viteae; test: Compound was tested in vivo for anti-filarial activity against A. viteae through oral route of administration at 200 mg/kg for 5 days and macrofilaricidal response was observed
[3] = test system: Acanthocheilonema viteae; test: Compound was tested in vivo for anti-filarial activity against A. viteae through oral route of administration at 200 mg/kg for 5 days and sterilization of female worms was observed
[4] = test system: Acanthocheilonema viteae; test: Compound was tested in vivo for anti-filarial activity against A. viteae through oral route of administration at 200 mg/kg for 5 days and sterilization of inactive worms was observed

| Structure (SMILES) | Reduction [1] [%] | Reduction [2] [%] | Activity [3] [%] | Activity [4] [%] |
| --- | --- | --- | --- | --- |
| CCCCCCNc1ccc(F)c(Cl)c1 | 50 | 88 | 0 |  |
| CCCCCCCNc1ccccc1 | 69 | 0 | 0 |  |
| CCCCN(CCCC)c1ccccc1 | 77 | 0 |  | 55 |
| CCCCCCNc1ccccc1 | 58 | 50 | 0 |  |
| CCCCCCNC1CCCCC1 | 0 | 100 | 0 |  |
| CCCCN(CCCC)C1CCCCC1 | 93 | 0 | 50 |  |
| CCCCNc1ccc(F)c(Cl)c1 | 32 | 0 |  | 0 |
| CCCCCCNc1ccc(F)cc1 | 0 | 50 | 0 |  |
| CCCCN(CCCC)c1ccc(F)cc1 | 81 | 0 |  | 50 |

— ChEMBL document CHEMBL1133387, “Secondary amines as new pharmacophores for macrofilaricidal drug design” (2000)
